pIC50: −log10 of the molar value. Where two headings read alike, the source gives them in different places.
What was measured:
Pfeiffer cells = test: CTG cell viability assay (CellTiter-Glo); assay type: cell-based; settings: Homo sapiens, 240 h; for pIC50: Pfeiffer cells, 10 days with compound, CellTiter-Glo, read-out: Cell Proliferation IC50
Protocol: 1,000 cells were plated into each well of 96-well Corning CellBing cell culture plates and incubated overnight at 37° C. in a humidified CO2 incubator. […] The cell culture plates were then incubated for 10 more days. CTG cell viability assay was performed on the cell culture samples by using CellTiter-Glo® Luminescent Cell Viability Assay Kit (Promega).

EED = EED (Homo sapiens, UniProt O75530); test: EED TR-FRET Binding Assay (modified LanthaScreen competition assay)
Procedure, shortened: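 Competition binding in a modified LanthaScreen format, in 20 mM Tris-HCl pH 7.5, 200 mM NaCl, 0.01% Tween-20, 10 uM DTT and 0.05% BSA. Reactions ran 1 hour at 25° C before TR-FRET detection.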

H3K27me3 in G401 cells = test: H3K27me3 AlphaLISA assay in G401 cells; assay type: cell-based; settings: Homo sapiens, G-401, 144 h, 6 days with compound
Protocol: G401 cells (ATCC catalog # CRL-1441) were maintained in McCoy's 5a medium (ATCC) supplemented with 10% heat-inactivated FBS (HyClone) at 37° C. in a humidified CO2 incubator. OCILY19 cells (DSMZ catalog #ACC 528) were maintained in IMDM (Invitrogen) supplemented with 10% human serum (Sigma) at 37° C. in a humidified CO2 incubator. 5,000 cells were plated into each well of 96-well Corning CellBing cell culture plates and incubated overnight at 37° C. in a humidified CO2 incubator. […] The cell culture plates were then incubated for 6 more days. H3K27me3 AlphaLISA assay was performed on the cell culture samples by using AlphaLISAR® H3K27me3 Cellular Detection Kit (PerkinElmer) and 96-well white half-area plates (PerkinElmer).

[1] = tested on: H3K27me3 in OCILY19 cells; test: H3K27me3 AlphaLISA assay in OCILY19 cells; assay type: cell-based; settings: Homo sapiens, OCI-LY19, 144 h, 6 days with compound, read-out: OCILY-19 IC50
Protocol: 5,000 cells were plated into each well of 96-well Corning CellBing cell culture plates and incubated overnight at 37° C. in a humidified CO2 incubator. […] The cell culture plates were then incubated for 6 more days. H3K27me3 AlphaLISA assay was performed on the cell culture samples by using AlphaLISAR® H3K27me3 Cellular Detection Kit (PerkinElmer) and 96-well white half-area plates (PerkinElmer).

Chain of EED (O75530 whole entry): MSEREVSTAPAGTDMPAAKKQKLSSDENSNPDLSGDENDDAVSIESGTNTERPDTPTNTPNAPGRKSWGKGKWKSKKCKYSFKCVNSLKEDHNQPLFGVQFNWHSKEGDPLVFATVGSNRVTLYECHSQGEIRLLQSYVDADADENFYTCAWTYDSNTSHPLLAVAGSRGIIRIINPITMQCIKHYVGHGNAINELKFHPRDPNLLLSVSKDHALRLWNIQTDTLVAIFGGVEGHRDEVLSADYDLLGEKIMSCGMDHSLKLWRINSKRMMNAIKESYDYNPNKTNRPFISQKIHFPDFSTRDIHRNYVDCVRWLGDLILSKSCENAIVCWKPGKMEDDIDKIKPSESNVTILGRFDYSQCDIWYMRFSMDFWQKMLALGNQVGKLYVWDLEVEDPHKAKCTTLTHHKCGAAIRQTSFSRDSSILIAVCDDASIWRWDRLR

Structure (SMILES) | pIC50 (Pfeiffer cells) | pIC50 (EED) | pIC50 (H3K27me3 in G401 cells) | pIC50 [1] | IC50 (Pfeiffer cells; Pfeiffer, read-out: Cell Proliferation IC50 (uM)) [µM]
CN(C)[C@H]1CN(C2CCc3cccc(F)c32)C[C@@H]1c1cn(C)c2cc(C(=O)N3CC[C@@H](O)C3)ccc12 (mixture of isomers) [Example 112, rac-{3-[(3S,4R)-4-(dimethylamino)-1-(7-fluoro-2,3-dihydro-1H-inden-1-yl)pyrrolidin-3-yl]-1-methyl-1H-indol-6-yl}[(3R)-3-hydroxypyrrolidin-1-yl]methanone] | 6.88 | 8.92 | 7.15 | 6.35 | 
Cc1n[nH]c(C)c1S(=O)(=O)N1CCN(C(=O)c2cccc3c([C@H]4CN(C5CCc6cccc(F)c65)C[C@@H]4N(C)C)cn(C)c23)CC1 (mixture of isomers) [Example 136, rac-{3-[(3S,4R)-4-(dimethylamino)-1-(7-fluoro-2,3-dihydro-1H-inden-1-yl)pyrrolidin-3-yl]-1-methyl-1H-indol-7-yl}[4-(3,5-dimethyl-1H-pyrazole-4-sulfonyl)piperazin-1-yl]methanone] | 5.82 | 8.69 | 6.48 | 6.21 | 
CN(C)[C@@H]1CN(C2CCc3cccc(F)c32)C[C@H]1c1ccc(Br)cc1 (mixture of isomers) [Example 6, rac-(3S,4R)-4-(4-bromophenyl)-1-(7-fluoro-2,3-dihydro-1H-inden-1-yl)-N,N-dimethylpyrrolidin-3-amine] | 5.48 | 8.32 | 6.61 | 5.75 | 
CN(C)[C@H]1CN(C2CCc3cccc(F)c32)C[C@@H]1c1cn(C)c2c(C(=O)N3CC(S(C)(=O)=O)C3)cccc12 (mixture of isomers) [Example 110, rac-{3-[(3S,4R)-4-(dimethylamino)-1-(7-fluoro-2,3-dihydro-1H-inden-1-yl)pyrrolidin-3-yl]-1-methyl-1H-indol-7-yl}[3-(methanesulfonyl)azetidin-1-yl]methanone] | 6.95 | 8.98 | 6.65 | 6.42 | 
CC(=O)N1CCN(c2ccc([C@H]3CN([C@H]4CCc5cccc(F)c54)C[C@@H]3N(C)C)cc2)CC1 [Example 45, 1-[4-(4-{(3S,4R)-4-(dimethylamino)-1-[(1S)-7-fluoro-2,3-dihydro-1H-inden-1-yl]pyrrolidin-3-yl}phenyl)piperazin-1-yl]ethan-1-one] |  | 9.52 | 7.51 | 7.36 | 0.0284
CN(C)[C@H]1CN(C2CCc3cccc(F)c32)C[C@@H]1c1cn(C)c2c(C(=O)N3CCN(S(=O)(=O)N4CC(C#N)C4)CC3)cccc12 (stereo partly drawn) [Example 133, 1-(4-{3-[(3S,4R)-4-(dimethylamino)-1-(7-fluoro-2,3-dihydro-1H-inden-1-yl)pyrrolidin-3-yl]-1-methyl-1H-indole-7-carbonyl}piperazine-1-sulfonyl)azetidine-3-carbonitrile] | 6.88 | 8.84 | 7.21 | 6.69 | 
CN(C)[C@H]1CN(C2CCc3cccc(F)c32)C[C@@H]1C1CCN(c2ccc(C(N)=O)nn2)CC1 (mixture of isomers) [Example 165, rac-6-{4-[(3S,4R)-4-(dimethylamino)-1-(7-fluoro-2,3-dihydro-1H-inden-1-yl)pyrrolidin-3-yl]piperidin-1-yl}pyridazine-3-carboxamide] | 6.54 | 9.32 | 7.25 | 6.57 | 
CN(C)[C@H]1CN(C2CCc3cccc(F)c32)C[C@@H]1C1CCN(c2ncc(C(N)=O)s2)CC1 (mixture of isomers) [Example 162, rac-2-{4-[(3S,4R)-4-(dimethylamino)-1-(7-fluoro-2,3-dihydro-1H-inden-1-yl)pyrrolidin-3-yl]piperidin-1-yl}-1,3-thiazole-5-carboxamide] | 6.67 | 9.19 | 6.54 | 6.31 | 
CN(C)[C@@H]1CN(C2CCc3cccc(F)c32)C[C@H]1c1ccc(Cl)cc1 (mixture of isomers) [Example 7, rac-(3S,4R)-4-(4-chlorophenyl)-1-(7-fluoro-2,3-dihydro-1H-inden-1-yl)-N,N-dimethylpyrrolidin-3-amine] | 5.63 | 8.22 | 5.50 | 5.51 | 
CN(C)[C@H]1CN(C2CCc3cccc(F)c32)C[C@@H]1C1CCN(c2ccc(C(N)=O)cc2)CC1 (mixture of isomers) [Example 166, rac-4-{4-[(3S,4R)-4-(dimethylamino)-1-(7-fluoro-2,3-dihydro-1H-inden-1-yl)pyrrolidin-3-yl]piperidin-1-yl}benzamide] | 6.89 | 9.34 | 6.64 | 6.56 | 
CN(C)C(=O)Cn1cc(-c2ccc([C@@H]3CN(C4CCc5cccc(F)c54)C[C@H]3N(C)C)cn2)cn1 (mixture of isomers) [Example 159, rac-2-(4-{5-[(3R,4S)-4-(dimethylamino)-1-(7-fluoro-2,3-dihydro-1H-inden-1-yl)pyrrolidin-3-yl]pyridin-2-yl}-1H-pyrazol-1-yl)-N,N-dimethylacetamide] | 6.61 | 8.94 | 6.80 | 6.63 | 
CN(C)[C@H]1CN(C2CCc3cccc(F)c32)C[C@@H]1c1cn(C)c2c(C(=O)N3CC(O)C3)cccc12 (stereo partly drawn) [Example 105, {3-[(3S,4R)-4-(dimethylamino)-1-(7-fluoro-2,3-dihydro-1H-inden-1-yl)pyrrolidin-3-yl]-1-methyl-1H-indol-7-yl}(3-hydroxyazetidin-1-yl)methanone] | 7.41 | 9.46 | 7.25 | 7.57 | 
CN(C)[C@@H]1CN(C2CCc3cccc(F)c32)C[C@H]1c1ccc(N2CCN(c3ccccn3)CC2)cc1 (mixture of isomers) [Example 75, rac-(3S,4R)-1-(7-fluoro-2,3-dihydro-1H-inden-1-yl)-N,N-dimethyl-4-{4-[4-(pyridin-2-yl)piperazin-1-yl]phenyl}pyrrolidin-3-amine] | 5.75 | 9.04 | 5.64 | 5.50 | 
CN(C)[C@@H]1CN(C2CCc3cccc(F)c32)C[C@H]1c1ccc(N2CCN(C(=O)CS(C)(=O)=O)CC2)nc1 (mixture of isomers) [Example 157, rac-1-(4-{5-[(3R,4S)-4-(dimethylamino)-1-(7-fluoro-2,3-dihydro-1H-inden-1-yl)pyrrolidin-3-yl]pyridin-2-yl}piperazin-1-yl)-2-(methanesulfonyl)ethan-1-one] | 6.45 | 8.85 | 6.64 | 6.69 | 
CN(C)[C@H]1CN(C2CCc3cccc(F)c32)C[C@@H]1c1cn(C)c2cc(C(=O)N3CC(O)C3)ccc12 (mixture of isomers) [Example 107, rac-{3-[(3S,4R)-4-(dimethylamino)-1-(7-fluoro-2,3-dihydro-1H-inden-1-yl)pyrrolidin-3-yl]-1-methyl-1H-indol-6-yl}(3-hydroxyazetidin-1-yl)methanone] | 6.55 | 8.97 | 7.08 | 6.30 | 
CN(C)[C@H]1CN(C2CCc3cccc(F)c32)C[C@@H]1c1cn(C)c2c(C(=O)N3CCN(S(=O)(=O)N4CCC4)CC3)cccc12 (stereo partly drawn) [Example 132, [4-(azetidine-1-sulfonyl)piperazin-1-yl]{3-[(3S,4R)-4-(dimethylamino)-1-(7-fluoro-2,3-dihydro-1H-inden-1-yl)pyrrolidin-3-yl]-1-methyl-1H-indol-7-yl}methanone] | 7.03 | 8.84 | 7.20 | 6.79 | 
CN(C)[C@@H]1CN(C2CCc3cccc(F)c32)C[C@H]1c1ccc(N2CCN(c3ccncn3)CC2)cc1 (mixture of isomers) [Example 74, rac-(3S,4R)-1-(7-fluoro-2,3-dihydro-1H-inden-1-yl)-N,N-dimethyl-4-{4-[4-(pyrimidin-4-yl)piperazin-1-yl]phenyl}pyrrolidin-3-amine] | 6.97 | 9.20 | 6.73 | 6.44 | 
CN(C)[C@@H]1CN(C2CCc3cccc(F)c32)C[C@H]1c1ccc(N2CCN(C(=O)CS(N)(=O)=O)CC2)nc1 (mixture of isomers) [Example 160, rac-2-(4-{5-[(3R,4S)-4-(dimethylamino)-1-(7-fluoro-2,3-dihydro-1H-inden-1-yl)pyrrolidin-3-yl]pyridin-2-yl}piperazin-1-yl)-2-oxoethane-1-sulfonamide] | 6.52 | 8.97 | 6.72 | 6.82 | 
CN(C)[C@@H]1CN(C2CCc3cccc(F)c32)C[C@H]1c1ccc(-c2cnn(CC(N)=O)c2)nc1 (mixture of isomers) [Example 158, rac-2-(4-{5-[(3R,4S)-4-(dimethylamino)-1-(7-fluoro-2,3-dihydro-1H-inden-1-yl)pyrrolidin-3-yl]pyridin-2-yl}-1H-pyrazol-1-yl)acetamide] | 6.41 | 8.86 | 6.90 | 7.06 | 
